Legend:
KDM5B = target: T1, KDM5B (Homo sapiens, UniProt Q9UGL1); test: KDM5B enzymatic assay (CisBio HTRF); format: biochemical
T1 construct: purchased Reaction Biology Corp (assay run there as a contract service)
Description: (§1) KDM5A and 5B were tested using CisBio HTRF assay platform by Reaction Biology Corp (Malvern, PA). All concentrations are final unless noted otherwise. Inhibitors were pre-incubated with 2.5 nM KDM5A or 1.2 nM KDM5B in a 5 μL reaction mixture containing 50 mM HEPES (pH 7.5), 50 mM NaCl, 0.01% Tween 20, 0.01% BSA for 15 min temperature. The reaction was initiated by addition of 5 μL of 50 nM Biotin-H3K4me3 and incubated with gentle shaking for 45 min at RT. The reaction was quenched with 10 mM EDTA and 200 mM potassium fluoride. Upon addition of Eu-Antibody and Streptavidine-XL665, the mixture was incubated for 2 hours in the dark. The fluorescence resonance energy transfer was measured using an excitation wavelength of 320 nm and emission wavelength of 665 nm on an Envision plate reader (Perkin Elmer).
(§2) Data was analyzed using GraphPad Prism 6.0 (La Jolla, CA). […] IC50 values were calculated as an average of at least two independent experiments.

KDM5A = target: T2, KDM5A (Homo sapiens, UniProt P29375); test: KDM5A enzymatic assay (CisBio HTRF); format: biochemical; conditions: enzyme concentration 2.5 nM; IC50 lower than enzyme concentration, likely underestimates potency
T2 construct: purchased Reaction Biology Corp (assay run there as a contract service)
T2 sequence (P29375 whole entry): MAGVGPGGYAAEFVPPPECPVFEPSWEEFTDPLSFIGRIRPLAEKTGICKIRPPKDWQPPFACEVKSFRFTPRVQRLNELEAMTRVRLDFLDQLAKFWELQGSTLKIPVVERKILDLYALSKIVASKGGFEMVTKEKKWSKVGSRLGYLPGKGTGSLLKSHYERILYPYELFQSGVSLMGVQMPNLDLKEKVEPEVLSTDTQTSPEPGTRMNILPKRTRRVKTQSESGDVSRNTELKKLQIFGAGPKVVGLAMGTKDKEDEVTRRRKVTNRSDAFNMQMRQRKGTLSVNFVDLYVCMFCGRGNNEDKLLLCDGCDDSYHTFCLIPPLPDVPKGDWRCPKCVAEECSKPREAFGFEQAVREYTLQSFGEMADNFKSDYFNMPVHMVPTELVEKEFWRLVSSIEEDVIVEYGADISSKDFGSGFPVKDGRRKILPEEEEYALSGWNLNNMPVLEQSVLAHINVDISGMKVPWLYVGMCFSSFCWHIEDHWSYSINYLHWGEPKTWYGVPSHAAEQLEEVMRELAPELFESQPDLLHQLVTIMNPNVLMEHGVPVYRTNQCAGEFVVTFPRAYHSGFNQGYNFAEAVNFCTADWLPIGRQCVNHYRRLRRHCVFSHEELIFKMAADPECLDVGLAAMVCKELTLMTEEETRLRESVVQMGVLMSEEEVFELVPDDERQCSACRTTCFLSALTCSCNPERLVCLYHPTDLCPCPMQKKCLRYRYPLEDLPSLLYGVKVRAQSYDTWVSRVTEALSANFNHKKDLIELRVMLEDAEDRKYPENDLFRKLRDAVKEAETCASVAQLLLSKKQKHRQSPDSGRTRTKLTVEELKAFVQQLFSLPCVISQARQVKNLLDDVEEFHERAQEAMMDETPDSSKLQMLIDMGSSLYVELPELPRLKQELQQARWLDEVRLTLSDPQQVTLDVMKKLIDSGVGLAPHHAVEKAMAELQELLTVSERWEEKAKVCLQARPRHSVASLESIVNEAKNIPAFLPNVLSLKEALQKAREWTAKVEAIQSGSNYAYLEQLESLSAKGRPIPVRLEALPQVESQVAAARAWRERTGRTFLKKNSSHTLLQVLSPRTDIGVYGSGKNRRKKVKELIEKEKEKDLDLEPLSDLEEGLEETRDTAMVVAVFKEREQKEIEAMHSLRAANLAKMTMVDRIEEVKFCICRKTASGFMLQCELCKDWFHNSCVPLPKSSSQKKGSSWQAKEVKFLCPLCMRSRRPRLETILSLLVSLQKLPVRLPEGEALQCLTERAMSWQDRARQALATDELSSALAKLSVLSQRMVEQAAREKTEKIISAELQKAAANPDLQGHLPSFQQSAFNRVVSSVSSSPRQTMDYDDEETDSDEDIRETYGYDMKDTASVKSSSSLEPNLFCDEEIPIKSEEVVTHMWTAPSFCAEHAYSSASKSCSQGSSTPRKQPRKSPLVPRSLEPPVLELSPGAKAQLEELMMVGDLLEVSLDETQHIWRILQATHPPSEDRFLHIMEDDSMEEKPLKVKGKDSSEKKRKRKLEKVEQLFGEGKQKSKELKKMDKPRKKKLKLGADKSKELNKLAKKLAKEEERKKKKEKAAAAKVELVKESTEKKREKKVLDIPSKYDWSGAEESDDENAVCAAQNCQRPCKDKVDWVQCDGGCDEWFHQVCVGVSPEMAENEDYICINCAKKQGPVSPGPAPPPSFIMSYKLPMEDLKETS
Description: as §1, §2

KDM4B = target: T3, KDM4B (Homo sapiens, UniProt O94953); test: KDM4B enzymatic assay (AlphaLISA); format: biochemical; conditions: enzyme concentration 1 nM
T3 sequence (O94953 1-1096): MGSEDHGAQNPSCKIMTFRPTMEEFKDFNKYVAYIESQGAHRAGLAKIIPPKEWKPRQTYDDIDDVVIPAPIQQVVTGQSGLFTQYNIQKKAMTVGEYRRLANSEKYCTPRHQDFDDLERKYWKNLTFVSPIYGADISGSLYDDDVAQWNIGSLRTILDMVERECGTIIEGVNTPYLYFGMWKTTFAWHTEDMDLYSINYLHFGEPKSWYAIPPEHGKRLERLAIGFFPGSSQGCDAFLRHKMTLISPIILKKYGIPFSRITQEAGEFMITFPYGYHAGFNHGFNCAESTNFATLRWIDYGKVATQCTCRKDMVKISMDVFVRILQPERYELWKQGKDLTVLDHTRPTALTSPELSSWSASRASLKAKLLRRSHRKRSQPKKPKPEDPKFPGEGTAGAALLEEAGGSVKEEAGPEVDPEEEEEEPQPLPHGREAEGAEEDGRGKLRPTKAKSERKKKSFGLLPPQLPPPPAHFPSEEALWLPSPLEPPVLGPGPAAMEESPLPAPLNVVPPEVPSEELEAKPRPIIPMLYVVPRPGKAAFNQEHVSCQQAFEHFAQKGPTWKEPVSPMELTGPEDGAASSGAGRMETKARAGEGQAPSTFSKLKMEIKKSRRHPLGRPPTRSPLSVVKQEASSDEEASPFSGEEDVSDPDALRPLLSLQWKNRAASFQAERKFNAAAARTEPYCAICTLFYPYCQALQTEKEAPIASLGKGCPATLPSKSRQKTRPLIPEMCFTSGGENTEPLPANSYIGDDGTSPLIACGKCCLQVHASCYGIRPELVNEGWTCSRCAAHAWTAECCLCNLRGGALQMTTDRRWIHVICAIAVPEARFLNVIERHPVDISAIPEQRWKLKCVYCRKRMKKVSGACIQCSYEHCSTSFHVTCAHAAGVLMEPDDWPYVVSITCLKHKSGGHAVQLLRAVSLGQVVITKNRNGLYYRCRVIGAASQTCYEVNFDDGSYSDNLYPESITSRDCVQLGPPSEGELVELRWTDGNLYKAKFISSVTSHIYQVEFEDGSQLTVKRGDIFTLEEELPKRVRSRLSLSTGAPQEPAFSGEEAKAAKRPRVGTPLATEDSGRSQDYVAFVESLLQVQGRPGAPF
Description: (§3) The following assay protocol was used for all histone demethylases tested except KDM1A, KDM5A, B, and D, which are described below. Compounds were serially diluted into a 384-well Alpha plate as a DMSO solution and mixed with 5 μL reaction buffer (buffer A) containing 50 mM HEPES (pH 7.0), 0.1% BSA, and 0.003% Tween-20. The enzyme of interest was pre-incubated with 15 μM of Fe^2+ for 10 min (except 30 min for KDM2B) in reaction buffer A. 5 μL of the enzyme mixture was added to each of the compound-containing wells and incubated for 10 min. The reaction was started by addition of a 5 μL mixture containing 300 nM peptide substrate, 75 μM L-ascorbic acid, and 30 μM α-ketoglutarate in buffer A. This final 15 μL of reaction mixture was incubated for 20 min for KDM5B and 1 hour for the other KDM enzymes. The reaction was quenched with 10 μL of diluted AlphaLISA Acceptor beads (1:400) in Epigenetics Buffer and incubated for 60 min. The Donor beads were diluted 1:400 into Epigenetics Buffer in the dark and 10 μL of this was added to each well and incubated for another 60 min in the dark. The assay plates were read on an Enspire plate reader (PerkinElmer) using a standard AlphaLISA program.
as §2

KDM2B = target: T4, KDM2B (Homo sapiens, UniProt Q8NHM5); test: KDM2B enzymatic assay (AlphaLISA); format: biochemical; conditions: enzyme concentration 2 nM
T4 sequence (Q8NHM5 1-1336): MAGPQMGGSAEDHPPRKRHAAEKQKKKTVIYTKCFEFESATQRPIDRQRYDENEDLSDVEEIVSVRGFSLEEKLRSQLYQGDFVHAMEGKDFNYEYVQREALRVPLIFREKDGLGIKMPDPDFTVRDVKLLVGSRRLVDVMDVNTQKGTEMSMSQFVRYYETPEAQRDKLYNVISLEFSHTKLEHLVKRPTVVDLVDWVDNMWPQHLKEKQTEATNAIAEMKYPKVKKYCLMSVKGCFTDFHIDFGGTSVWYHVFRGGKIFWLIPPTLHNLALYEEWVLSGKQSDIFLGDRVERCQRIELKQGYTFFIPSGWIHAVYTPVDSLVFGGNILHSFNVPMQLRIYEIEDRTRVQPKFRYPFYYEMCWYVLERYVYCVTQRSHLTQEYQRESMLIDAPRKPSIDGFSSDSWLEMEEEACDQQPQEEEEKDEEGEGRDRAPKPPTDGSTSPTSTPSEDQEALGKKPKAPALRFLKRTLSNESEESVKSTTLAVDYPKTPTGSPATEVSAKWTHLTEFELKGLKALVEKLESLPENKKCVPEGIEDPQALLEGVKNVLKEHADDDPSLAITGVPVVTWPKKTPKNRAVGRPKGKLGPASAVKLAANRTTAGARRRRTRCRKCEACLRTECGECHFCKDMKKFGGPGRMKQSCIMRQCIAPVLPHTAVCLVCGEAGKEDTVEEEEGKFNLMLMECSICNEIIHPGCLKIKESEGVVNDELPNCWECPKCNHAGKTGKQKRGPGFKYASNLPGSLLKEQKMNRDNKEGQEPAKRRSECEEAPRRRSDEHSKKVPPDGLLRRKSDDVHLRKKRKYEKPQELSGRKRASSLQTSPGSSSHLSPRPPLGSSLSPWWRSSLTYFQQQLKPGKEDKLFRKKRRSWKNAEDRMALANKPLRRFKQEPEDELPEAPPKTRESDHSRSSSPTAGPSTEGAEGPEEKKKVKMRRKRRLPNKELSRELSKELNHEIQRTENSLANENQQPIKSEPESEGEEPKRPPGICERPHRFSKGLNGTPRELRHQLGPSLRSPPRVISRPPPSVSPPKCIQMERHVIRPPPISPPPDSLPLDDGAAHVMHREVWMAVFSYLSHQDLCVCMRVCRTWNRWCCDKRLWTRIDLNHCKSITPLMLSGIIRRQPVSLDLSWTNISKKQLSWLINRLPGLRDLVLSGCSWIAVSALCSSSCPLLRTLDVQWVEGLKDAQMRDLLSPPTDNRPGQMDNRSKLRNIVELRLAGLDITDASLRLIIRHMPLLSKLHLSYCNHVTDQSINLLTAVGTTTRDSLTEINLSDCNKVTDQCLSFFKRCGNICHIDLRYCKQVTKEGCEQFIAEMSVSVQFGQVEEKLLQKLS
Description: as §3, §2

KDM6A = KDM6A (Homo sapiens, UniProt O15550); test: KDM6A enzymatic assay (AlphaLISA); format: biochemical; conditions: enzyme concentration 2 nM
Description: as §3, §2

NSD1 = target: T5, NSD1 (Homo sapiens, UniProt Q96L73); test: Histone methyltransferase enzymatic assay, NSD1; format: biochemical; conditions: enzyme conc. 50 nM
T5 construct: 1538-2696; purchased RBC (read as Reaction Biology Corporation, named)
Description: (§4) Histone methyltransferase assays were performed in 96-well half-area optiplates (PerkinElmer) at room temperature. All concentrations are final unless noted otherwise. Compounds were serially diluted in DMSO and the final DMSO concentration was 1%. A 24 μL reaction mixture contained compound, enzyme, 200 nM of nucleosome or histone substrate, 400 nM ^3H-SAM (83.1 Ci/mmol), 50 mM Tris-HCl (pH 8.0), 50 mM NaCl, 5 mM MgCl2, 1 mM DTT, and 0.01% Tween-20. The plate was sealed, mixed on a Titramax plate shaker at 1200 rpm for 30 sec, and incubated at room temperature for 60 min. The reaction was quenched by addition of 24 μL mixture containing 5 mg/mL PVT-PEI beads and 300 μM unlabeled SAM in water. The plate was sealed, mixed as previously noted, incubated overnight, and read on a TopCount plate reader (PerkinElmer).
as §2

NSD3 = target: T6, NSD3 (Homo sapiens, UniProt Q9BZ95); test: Histone methyltransferase enzymatic assay, NSD3; format: biochemical; conditions: enzyme conc. 100 nM
T6 construct: 1021-1322; purchased RBC (read as Reaction Biology Corporation, named)
T6 sequence (Q9BZ95 1021-1322): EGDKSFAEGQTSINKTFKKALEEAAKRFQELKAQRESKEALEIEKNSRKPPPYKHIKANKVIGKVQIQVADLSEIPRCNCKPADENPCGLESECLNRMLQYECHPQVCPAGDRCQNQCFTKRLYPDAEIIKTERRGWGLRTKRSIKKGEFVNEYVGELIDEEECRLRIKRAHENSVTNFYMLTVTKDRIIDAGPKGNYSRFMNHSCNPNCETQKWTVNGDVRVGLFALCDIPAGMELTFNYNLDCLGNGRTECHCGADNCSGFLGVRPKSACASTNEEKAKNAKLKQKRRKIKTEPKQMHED
Description: as §4, §2

SET7/9 = target: T7, SET7/9 (Homo sapiens, UniProt Q8WTS6); test: Histone methyltransferase enzymatic assay, SET7/9; format: biochemical; conditions: enzyme conc. 100 nM
T7 construct: 2-366; purchased RBC (read as Reaction Biology Corporation, named)
T7 sequence (Q8WTS6 2-366): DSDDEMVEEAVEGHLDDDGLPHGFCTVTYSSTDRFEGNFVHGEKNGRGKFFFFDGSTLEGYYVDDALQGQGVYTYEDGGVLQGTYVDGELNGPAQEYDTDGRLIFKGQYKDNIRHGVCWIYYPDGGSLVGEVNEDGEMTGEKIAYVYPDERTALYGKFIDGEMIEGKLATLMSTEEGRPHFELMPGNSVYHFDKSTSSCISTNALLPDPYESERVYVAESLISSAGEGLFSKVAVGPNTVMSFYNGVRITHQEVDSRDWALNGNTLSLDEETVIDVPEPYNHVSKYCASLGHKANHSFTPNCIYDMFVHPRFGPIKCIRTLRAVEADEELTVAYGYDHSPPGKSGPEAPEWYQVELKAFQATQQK
Description: as §4, §2

GLP = target: T8, GLP (Homo sapiens, UniProt Q9H9B1); test: Histone methyltransferase enzymatic assay, GLP; format: biochemical
T8 construct: 894-1298; purchased RBC (read as Reaction Biology Corporation, named)
T8 sequence (Q9H9B1 894-1298): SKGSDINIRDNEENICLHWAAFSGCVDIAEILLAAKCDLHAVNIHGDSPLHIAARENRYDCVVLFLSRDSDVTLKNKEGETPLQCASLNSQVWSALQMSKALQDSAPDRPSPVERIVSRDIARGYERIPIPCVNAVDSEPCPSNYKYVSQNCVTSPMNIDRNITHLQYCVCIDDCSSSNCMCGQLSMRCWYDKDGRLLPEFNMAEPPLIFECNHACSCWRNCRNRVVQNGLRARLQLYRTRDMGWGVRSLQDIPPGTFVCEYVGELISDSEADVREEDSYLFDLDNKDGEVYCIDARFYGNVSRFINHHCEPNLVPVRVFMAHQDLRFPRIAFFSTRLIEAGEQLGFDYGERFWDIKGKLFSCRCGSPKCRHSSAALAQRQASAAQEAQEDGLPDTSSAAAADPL
Description: as §4, §2

SETDB1 = target: T9, SETDB1 (Homo sapiens, UniProt Q15047); test: Histone methyltransferase enzymatic assay, SETDB1; format: biochemical; conditions: enzyme conc. 100 nM
T9 construct: 510-1290
Description: as §4, §2

Cytotoxicity CC50, MT-4 = format: cell-based; conditions: human, MT-4 cells (T-lymphoblastoid cell line)
Excerpt: (§5) a Values represent the geometric mean and multiplicative standard deviation of 3 – 5 primary human hepatocyte (PHH) donors or 5 – 10 independent experiments.
(§6) b MT-4: human T-lymphoblastoid cell line; PBMC: peripheral blood mononuclear cell; Gal-HepG2: galactose adapted human hepatoblastoma cell line; Huh-7: human hepatoma cell line; Gal-PC3: galactose adapted human prostate carcinoma cell line; MRC-5: Medical Research Council 5 embryonal lung fibroblast; NRVM: neonatal rat ventricular cardiomyocytes

Cytotoxicity CC50, PBMC = format: cell-based; conditions: human, PBMC (peripheral blood mononuclear cells)
Excerpt: as §5, §6

[1] = Cytotoxicity CC50, Gal-HepG2; format: cell-based; conditions: human, Gal-HepG2 cells (galactose adapted hepatoblastoma cell line)
Excerpt: as §5, §6

Cytotoxicity CC50, Huh-7 = format: cell-based; conditions: human, Huh-7 cells (hepatoma cell line)
Excerpt: as §5, §6

Cytotoxicity CC50, PHH = format: cell-based; conditions: human, primary human hepatocytes (PHH)
Excerpt: as §5, §6

[2] = Cytotoxicity CC50, Gal-PC3; format: cell-based; conditions: human
Excerpt: as §5, §6

Cytotoxicity CC50, MRC-5 = format: cell-based; conditions: human, MRC-5 cells (embryonal lung fibroblasts)
Excerpt: as §5, §6

Cytotoxicity CC50, NRVM = format: cell-based; conditions: rat, NRVM (neonatal rat ventricular cardiomyocytes)
Excerpt: as §5, §6

HBV (genotype C, GTC) = tested on: HBV (genotype C, GTC); set-up: method as in PMID 31226346; conditions: humanized mouse model of HBV infection; cited from earlier work
KDM6B = KDM6B (Homo sapiens, UniProt O15054); test: KDM6B enzymatic assay (AlphaLISA); format: biochemical
Description: as §3, §2

KDM7B = KDM7B (Homo sapiens, UniProt Q9UPP1); test: KDM7B enzymatic assay (AlphaLISA); format: biochemical; conditions: enzyme concentration 2.5 nM
Description: as §3, §2

T1 sequence (Q9UGL1 whole entry): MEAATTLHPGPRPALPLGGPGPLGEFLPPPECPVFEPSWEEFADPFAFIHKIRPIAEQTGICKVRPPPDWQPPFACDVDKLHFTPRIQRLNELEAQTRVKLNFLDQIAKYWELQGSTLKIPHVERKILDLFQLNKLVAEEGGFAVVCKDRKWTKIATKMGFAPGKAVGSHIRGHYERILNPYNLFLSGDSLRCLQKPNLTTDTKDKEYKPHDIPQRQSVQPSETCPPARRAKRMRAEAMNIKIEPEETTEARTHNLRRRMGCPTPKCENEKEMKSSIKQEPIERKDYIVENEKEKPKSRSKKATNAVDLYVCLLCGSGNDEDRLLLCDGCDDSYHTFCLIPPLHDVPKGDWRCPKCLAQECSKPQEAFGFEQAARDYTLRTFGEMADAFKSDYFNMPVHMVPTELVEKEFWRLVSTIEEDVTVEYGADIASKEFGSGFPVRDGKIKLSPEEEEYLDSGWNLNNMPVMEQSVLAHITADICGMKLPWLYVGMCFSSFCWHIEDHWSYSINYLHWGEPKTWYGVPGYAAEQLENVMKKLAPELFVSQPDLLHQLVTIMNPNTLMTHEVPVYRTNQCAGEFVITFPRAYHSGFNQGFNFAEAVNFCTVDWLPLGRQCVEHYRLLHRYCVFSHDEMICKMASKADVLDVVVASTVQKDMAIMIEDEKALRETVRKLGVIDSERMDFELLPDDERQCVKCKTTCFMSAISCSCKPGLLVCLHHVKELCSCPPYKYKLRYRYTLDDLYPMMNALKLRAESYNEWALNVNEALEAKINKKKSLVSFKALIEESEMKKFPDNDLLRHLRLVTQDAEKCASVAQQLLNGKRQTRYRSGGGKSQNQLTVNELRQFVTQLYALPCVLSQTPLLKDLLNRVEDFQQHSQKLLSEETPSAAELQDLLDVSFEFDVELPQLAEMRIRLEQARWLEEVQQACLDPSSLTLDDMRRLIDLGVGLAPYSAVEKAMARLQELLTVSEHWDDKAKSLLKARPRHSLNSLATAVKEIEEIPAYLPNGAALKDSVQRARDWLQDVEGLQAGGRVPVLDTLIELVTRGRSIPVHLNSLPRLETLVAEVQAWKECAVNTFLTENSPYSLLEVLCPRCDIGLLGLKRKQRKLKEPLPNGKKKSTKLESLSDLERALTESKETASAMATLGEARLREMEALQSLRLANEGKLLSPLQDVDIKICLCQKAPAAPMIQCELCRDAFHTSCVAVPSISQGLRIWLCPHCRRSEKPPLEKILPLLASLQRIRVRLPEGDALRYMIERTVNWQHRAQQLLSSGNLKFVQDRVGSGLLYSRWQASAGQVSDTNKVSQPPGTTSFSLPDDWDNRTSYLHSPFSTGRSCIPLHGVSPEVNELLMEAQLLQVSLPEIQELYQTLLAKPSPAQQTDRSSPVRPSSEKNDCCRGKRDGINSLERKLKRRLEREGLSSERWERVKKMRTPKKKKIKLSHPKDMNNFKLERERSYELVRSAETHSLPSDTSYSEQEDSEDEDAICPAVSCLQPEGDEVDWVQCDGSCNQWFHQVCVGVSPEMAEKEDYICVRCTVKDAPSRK

Compound: CCN(CCN(C)C)C(=O)CNCc1cc(C(=O)O)c(Br)cn1 [GS-444]
- fold reduced KDM5B inhibitory activity over GS-080 (KDM5B; IC50 for KDM5B compared with GS-080): 7000 fold
- IC50 (KDM5B; enzyme concentration 1.2 nM, IC50 lower than enzyme concentration, likely underestimates potency): 2760 nM

Compound: O=C(O)c1ccnc(C(=O)O)c1 [PDCA, 2,4-Pyridinedicarboxylic acid, reference compound]
- IC50 (KDM5A): 410 nM
- IC50 (KDM4B): 860 nM
- IC50 (KDM2B): 19000 nM
- IC50 (KDM6A): 99000 nM

Compound: Nc1ncnc2c1ncn2[C@@H]1O[C@H](CSCC[C@H](N)C(=O)O)[C@@H](O)[C@H]1O [SAH, S-(5′-Adenosyl)-L-homocysteine, reference compound]
- IC50 (NSD1): 93000 nM
- IC50 (NSD3): 15000 nM
- IC50 (SET7/9): 70000 nM
- IC50 (GLP): 2200 nM
- IC50 (SETDB1): 17000 nM

Compound: COc1ccc(C[C@H](N)C(=O)N[C@H]2[C@@H](O)[C@H](n3cnc4c(N(C)C)ncnc43)O[C@@H]2CO)cc1 [Puromycin, reference compound]
- CC50 (Cytotoxicity CC50, MT-4): 100 nM
- CC50 (Cytotoxicity CC50, PBMC): 610 ± 1300 nM
- CC50 [1]: 1300 ± 1400 nM
- CC50 (Cytotoxicity CC50, Huh-7): 670 ± 1500 nM
- CC50 (Cytotoxicity CC50, PHH): 1600 ± 1800 nM
- CC50 [2]: 440 nM
- CC50 (Cytotoxicity CC50, MRC-5): 350 nM
- CC50 (Cytotoxicity CC50, NRVM): 570 ± 1400 nM

Compound: CC1=C(/C=C/C(C)=C/C=C/C(C)=C\C(=O)O)C(C)(C)CCC1 [Accutane]
- in vivo antiviral activity (HBV (genotype C, GTC)): lack of in vivo antiviral activity

Compound: Oc1cccc2cccnc12 [8-OH Quinoline, 8-hydroxyquinoline, reference compound]
- IC50 (KDM6B): 6400 nM
- IC50 (KDM7B): 13000 nM

From paper PMC9728921, “Characterization of a KDM5 small molecule inhibitor with antiviral activity against hepatitis B virus” (PLOS ONE, 2022)
